Source: PMC6269559, “Design, Synthesis and Biological Evaluation of Ketoprofen Conjugated To RGD/NGR for Targeted Cancer Therapy” (Iranian Journal of Pharmaceutical Research : IJPR, 2018)

Experiments:
Assay type in all cases: cell-based
HT-1080 (high CD13) = assay: MTT cytotoxicity, HT-1080; settings: 48 h; for Inhibitory % values, HT-1080: 100 µM
Experimental: (§1) In order to evaluate the cytotoxic activity of the synthesis compounds, five cell lines: A2780 (low αVβ3), OVCAR-3 (high αVβ3), SKOV-3 (low CD13), HT-1080 (high CD13) and MCF-7 and fibroblast cell were selected. A2780 and MCF-7 are both cancer cells, but A2780 is […] cell line. Three concentrations of products were prepared and were evaluated after 48 h by using MTT method. Therefore cells cultured in culture media (RPMI1640) at 37 °C under 5% CO2 supplemented with 10% fetal bovine serum (FBS), 100 U/mL penicillin and 100 μg/mL streptomycin. Nearly 10^4 cells were seeded into 96-well plates and were grown for 24 h in incubator. Compounds and doxorubicin added to wells, cells were incubated at 37 °C for 48 h. Cells without any adding of compound were used as negative control, Doxorubicin was used as positive control and DMSO as the solvent of the test compounds. After 48 h, 10 μL of MTT (5 mg/mL in PBS) was added at 37 °C for 4 h. The medium with MTT was removed and 100 μL DMSO was added to each well, cover the plate from light, shake it for 5 min, then optical densities were read at 570 nm with a reference wavelength of 630 nm as background using a spectrophotometer plate reader (Infinite® M200, TECAN).

MCF-7 = assay: MTT cytotoxicity, MCF-7; settings: 48 h; for Inhibitory % values, MCF-7: at 50 µM
Experimental: as §1

OVCAR-3 (high αVβ3) = assay: MTT cytotoxicity, OVCAR-3; settings: 48 h; for Inhibitory % values, OVCAR3: 100 µM
Experimental: as §1

A2780 (low αVβ3) = assay: MTT cytotoxicity, A2780; settings: 48 h; for Inhibitory % values, A2780: 100 µM
Experimental: as §1

SKOV-3 (low CD13) = assay: MTT cytotoxicity, SKOV-3; settings: 48 h; for Inhibitory % values, SKOV-3: 100 µM
Experimental: as §1

Fibroblast = assay: MTT cytotoxicity, fibroblast; settings: 100 µM, 48 h
Experimental: as §1

Compound	inhibition at 5 µM (HT-1080 (high CD13); Homo sapiens, HT-1080, at 5 µM (positive control), read-out: Inhibitory % values, HT-1080)	inhibition at 5 µM (MCF-7; Homo sapiens, MCF7, at 5 µM (positive control), read-out: Inhibitory % values, MCF-7)	inhibition at 5 µM (OVCAR-3 (high αVβ3); Homo sapiens, OVCAR-3, at 5 µM (positive control), read-out: Inhibitory % values, OVCAR3)	inhibition at 5 µM (A2780 (low αVβ3); Homo sapiens, A2780, at 5 µM (positive control), read-out: Inhibitory % values, A2780)	inhibition at 5 µM (SKOV-3 (low CD13); Homo sapiens, SK-OV-3, at 5 µM (positive control), read-out: Inhibitory % values, SKOV-3)	inhibition at 100 µM (HT-1080 (high CD13); Homo sapiens, HT-1080, 100 µM, read-out: Inhibitory % values, HT-1080)	Inhibitory % values, OVCAR3 (OVCAR-3 (high αVβ3))	Inhibitory % values, A2780 (A2780 (low αVβ3))	Inhibitory % values, Fibroblast (Fibroblast)	inhibition at 100 µM (SKOV-3 (low CD13); Homo sapiens, SK-OV-3, 100 µM, read-out: Inhibitory % values, SKOV-3)	Inhibitory % values, HT-1080 (HT-1080 (high CD13))	Inhibitory % values, MCF-7 (MCF-7)	Inhibitory % values, SKOV-3 (SKOV-3 (low CD13))
COc1cccc2c1C(=O)c1c(O)c3c(c(O)c1C2=O)C[C@@](O)(C(=O)CO)C[C@@H]3O[C@H]1C[C@H](N)[C@H](O)[C@H](C)O1 [Doxorubicin, reference compound]	26.7 ± 4.8%	38 ± 0.53%	45.2 ± 1.25%	65 ± 1.2%	29.5 ± 2.5%	–	–	–	–	–	–	–	–
CC(C(=O)O)c1cccc(C(=O)c2ccccc2)c1 (stereo not shown) [Ketoprofen]	–	–	–	–	–	9.25 ± 1.3%	No inhibition	No inhibition	No inhibition	14 ± 4.7%	–	–	–
Arginine-Glycine-Aspartic acid [RGD]	–	–	–	–	–	–	No inhibition	10 ± 2.2%	No inhibition	–	No inhibition	No inhibition	9.5 ± 0.5%
Asparagine-Glycine-Arginine [NGR]	–	–	–	–	–	–	No inhibition	6 ± 1.5%	No inhibition	–	6.5 ± 0.5%	No inhibition	No inhibition
